Source: US20260308145A1, “CDK2 INHIBITORS AND METHODS OF USING SAME” (Shenzhen lonova Life Science Co., Ltd., priority 2023, published 2026)
pIC50: −log10 of the molar value.

How the values were obtained:
Type in all cases: biochemical
CDK4/cyclinD3 = biological target: T1, CDK4/cyclinD3 (Homo sapiens, UniProt P11802); assay: Cyclin-dependent kinase activity assay (continuous ATP coupling assay), CDK4/cyclinD3; details: CDK4/cyclinD3 60 nM, ATP 500 μM, Rb copeptide 500 μM, 15 min preincubation, pH 7.5, 1% DMSO
T1 construct: purchased Carna Biosciences 04-105
Method in brief: (§1)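 PK/LDH-coupled continuous assay, ATP at each kinase's Km, Tris pH 7.5 with 1% DMSO final; enzyme preincubated 15 min with compound (10 μM to 0.05 nM, 1:3), NADH fluorescence decrease (ex 340/em 460) gave velocities. IC50 by 4-variable fit; Ki by quadratic/Morrison fit.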

CDK2/cyclinE1 = biological target: T2, CDK2/cyclinE1 (Homo sapiens, UniProt P24941); assay: Cyclin-dependent kinase activity assay (continuous ATP coupling assay), CDK2/cyclinE1; details: CDK2/cyclinE1 5 nM, ATP 300 μM, Rb copeptide 100 μM, 15 min preincubation, pH 7.5, 1% DMSO
T2 construct: purchased Carna Biosciences 04-165
Method in brief: as §1

CDK6/cyclinD3 = biological target: T3, CDK6/cyclinD3 (Homo sapiens, UniProt Q00534); assay: Cyclin-dependent kinase activity assay (continuous ATP coupling assay), CDK6/cyclinD3; details: CDK6/cyclinD3 25 nM, ATP 500 μM, Rb copeptide 500 μM, 15 min preincubation, pH 7.5, 1% DMSO
T3 construct: purchased Carna Biosciences 04-107
Method in brief: as §1

CDK1/cyclinB1 = biological target: T4, CDK1/cyclinB1 (Homo sapiens, UniProt P06493); assay: Cyclin-dependent kinase activity assay (continuous ATP coupling assay), CDK1/cyclinB1; details: CDK1/cyclinB1 10 nM, ATP 200 μM, Histone1 copeptide 100 μM, 15 min preincubation, pH 7.5, 1% DMSO
T4 construct: purchased Carna Biosciences 04-102
Method in brief: as §1

T4 sequence (P06493 whole entry): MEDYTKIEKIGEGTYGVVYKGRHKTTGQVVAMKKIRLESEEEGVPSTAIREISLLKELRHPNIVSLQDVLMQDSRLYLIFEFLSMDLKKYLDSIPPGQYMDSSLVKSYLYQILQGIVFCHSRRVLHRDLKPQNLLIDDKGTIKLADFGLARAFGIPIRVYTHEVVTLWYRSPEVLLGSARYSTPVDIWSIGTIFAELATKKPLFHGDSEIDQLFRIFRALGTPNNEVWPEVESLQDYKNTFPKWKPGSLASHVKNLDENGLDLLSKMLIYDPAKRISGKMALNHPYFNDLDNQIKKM
T4 sequence (P14635 whole entry partner): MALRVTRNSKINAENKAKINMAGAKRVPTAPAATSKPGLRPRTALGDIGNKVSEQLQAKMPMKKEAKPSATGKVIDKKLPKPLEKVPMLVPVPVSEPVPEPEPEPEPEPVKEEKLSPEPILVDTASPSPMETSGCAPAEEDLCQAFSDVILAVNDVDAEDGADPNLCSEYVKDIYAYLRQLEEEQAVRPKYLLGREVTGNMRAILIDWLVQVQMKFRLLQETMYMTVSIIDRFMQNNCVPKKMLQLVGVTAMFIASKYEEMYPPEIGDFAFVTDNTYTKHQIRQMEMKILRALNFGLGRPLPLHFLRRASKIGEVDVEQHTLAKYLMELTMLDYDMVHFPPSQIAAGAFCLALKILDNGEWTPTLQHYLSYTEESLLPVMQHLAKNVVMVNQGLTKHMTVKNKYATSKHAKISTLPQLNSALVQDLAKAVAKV
T1 sequence (P11802 whole entry): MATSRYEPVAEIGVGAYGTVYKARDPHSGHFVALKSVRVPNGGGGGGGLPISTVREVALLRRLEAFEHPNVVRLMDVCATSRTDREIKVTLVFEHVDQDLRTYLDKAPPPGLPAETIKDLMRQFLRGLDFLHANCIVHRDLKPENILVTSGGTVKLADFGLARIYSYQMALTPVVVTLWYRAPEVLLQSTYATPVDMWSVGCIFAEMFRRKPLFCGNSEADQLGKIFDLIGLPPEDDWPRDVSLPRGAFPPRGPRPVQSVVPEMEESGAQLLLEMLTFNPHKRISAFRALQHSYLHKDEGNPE
T1 sequence (P30281 whole entry partner): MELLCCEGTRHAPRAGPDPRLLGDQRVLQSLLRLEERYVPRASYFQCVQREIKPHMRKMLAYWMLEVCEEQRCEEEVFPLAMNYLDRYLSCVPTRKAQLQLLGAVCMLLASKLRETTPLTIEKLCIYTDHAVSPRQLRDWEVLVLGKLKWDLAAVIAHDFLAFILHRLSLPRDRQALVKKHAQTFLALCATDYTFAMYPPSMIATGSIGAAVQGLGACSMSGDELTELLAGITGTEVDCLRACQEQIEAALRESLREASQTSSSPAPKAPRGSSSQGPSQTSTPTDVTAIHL
T3 sequence (Q00534 whole entry): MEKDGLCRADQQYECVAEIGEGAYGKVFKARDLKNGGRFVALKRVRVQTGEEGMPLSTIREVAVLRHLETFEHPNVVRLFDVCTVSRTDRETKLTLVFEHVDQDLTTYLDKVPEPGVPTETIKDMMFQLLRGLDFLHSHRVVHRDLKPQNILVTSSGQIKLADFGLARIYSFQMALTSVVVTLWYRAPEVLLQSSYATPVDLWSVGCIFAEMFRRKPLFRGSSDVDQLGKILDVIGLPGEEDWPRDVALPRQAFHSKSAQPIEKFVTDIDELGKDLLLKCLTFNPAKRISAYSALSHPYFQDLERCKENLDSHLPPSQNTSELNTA
T3 sequence (P30281 whole entry partner): as the sequence (P30281 whole entry partner) above

pIC50 (CDK4/cyclinD3) | pIC50 (CDK2/cyclinE1) | pIC50 (CDK6/cyclinD3) | pIC50 (CDK1/cyclinB1) | SMILES
7.00 to 8.00 | ≥ 8.00 | 7.00 to 8.00 | ≤ 7.00 | CNS(=O)(=O)c1ccc(Nc2ncc(C#N)c(-n3cc(CC(C)(C)O)cn3)n2)cc1 [Example 64]
7.00 to 8.00 | ≥ 8.00 | 7.00 to 8.00 | 7.00 to 8.00 | CNS(=O)(=O)c1ccc(Nc2ncc(C(F)(F)F)c(-n3cc(C[C@@H](C)O)cn3)n2)cc1 (single isomer, unassigned) [Example 5]
≤ 7.00 | ≥ 8.00 | ≤ 7.00 | ≤ 7.00 | O=C(O)CNS(=O)(=O)c1ccc(Nc2ncc(C(F)(F)F)c(-n3cccn3)n2)cc1 [Example 138, ((4-((4-(1H-pyrazol-1-yl)-5-(trifluoromethyl)pyrimidin-2-yl)amino)phenyl)sulfonyl)glycine]
